pIC50: −log10 of the molar value.
Assays:
Na^+ /H^+ exchanger = target: T1, Na^+ /H^+ exchanger (Oryctolagus cuniculus, UniProt P23791); assay: Inhibition of the Na+/H+ exchanger of rabbit erythrocytes; assay type: cell-based; details: amiloride-sensitive Na+ influx, pH 7.4, 37° C.
T1 construct: endogenous in cells; host or cells: rabbit erythrocytes (blood of cholesterol-fed White New Zealand rabbits)
Excerpt: Inhibition of the Na^+ /H^+ exchanger of rabbit erythrocytes
White New Zealand rabbits (Ivanovas) were given a standard diet containing 2% of cholesterol for six weeks so as to activate the Na^+ /H^+ exchange in order to be able to determine the Na^+ influx into the erythrocytes via Na^+ /H^+ exchange by means of flame photometry. The blood was sampled from the auricular artery and made incoagulable by addition of 25 IE of potassium heparin. Part of each sample was used for a repeated hematocrit measurement by centrifuging. 100 μl aliquots were used for measuring the initial Na^+ content of the erythrocytes.
To determine the amiloride-sensitive sodium influx, 100 μl of each blood sample were incubated in in each case 5 ml of a hyperosmolaric salt/sucrose medium (mmol/l: 140 NaCl, 3 KCl, 150 sucrose, 0.1 ouabain, 20 tris-hydroxymethylaminomethane) at pH 7.4 and 37° C. […] The intracellular sodium content was determined by flame photometry.
The Na^+ net influx was calculated from the difference between the initial sodium values and the sodium content of the erythrocytes after incubation. The sodium influx which can be inhibited by amiloride was determined from the difference of the sodium content of the erythrocytes after incubation with and without amiloride 3×10^-4 mol/l. […]

[1] = tested on: artificially induced ventricular fibrillation; details: rats' hearts; Eur. Heart J. 9 (suppl. 1): 167 (1988); cited from earlier work
[2] = in vivo; cited from earlier work

T1 sequence (P23791 whole entry): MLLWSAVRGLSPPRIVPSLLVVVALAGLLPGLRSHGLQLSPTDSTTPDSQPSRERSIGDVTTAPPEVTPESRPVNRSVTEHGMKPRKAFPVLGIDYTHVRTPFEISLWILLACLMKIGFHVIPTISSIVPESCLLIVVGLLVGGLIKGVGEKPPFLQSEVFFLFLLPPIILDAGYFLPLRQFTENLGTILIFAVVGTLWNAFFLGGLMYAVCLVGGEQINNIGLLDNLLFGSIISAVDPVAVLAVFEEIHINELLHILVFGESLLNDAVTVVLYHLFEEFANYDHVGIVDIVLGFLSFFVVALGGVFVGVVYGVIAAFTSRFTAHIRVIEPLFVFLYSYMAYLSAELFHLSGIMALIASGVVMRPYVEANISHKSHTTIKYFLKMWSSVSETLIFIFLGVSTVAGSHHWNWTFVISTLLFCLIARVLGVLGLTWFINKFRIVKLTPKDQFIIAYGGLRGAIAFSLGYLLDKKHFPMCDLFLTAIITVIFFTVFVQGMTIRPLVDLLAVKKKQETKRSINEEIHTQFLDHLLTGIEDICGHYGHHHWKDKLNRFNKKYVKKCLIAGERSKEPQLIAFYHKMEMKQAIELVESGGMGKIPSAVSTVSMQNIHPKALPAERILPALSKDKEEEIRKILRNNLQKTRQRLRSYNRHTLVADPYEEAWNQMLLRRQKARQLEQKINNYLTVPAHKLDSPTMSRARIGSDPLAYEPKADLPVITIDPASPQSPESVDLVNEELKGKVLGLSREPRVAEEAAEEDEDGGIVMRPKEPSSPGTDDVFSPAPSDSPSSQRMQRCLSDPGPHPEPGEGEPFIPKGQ

pIC50 (Na^+ /H^+ exchanger)	SMILES	suppression of artificially induced ventricular fibrillation [1]	hypotensive and saluretic side effects [2]
7.52	NC(N)=NC(=O)c1ccc(Oc2cccnc2)c(C(F)(F)F)c1 [Example 16, 4-(3-Pyridyloxy)-3-trifluoromethylbenzoylguanidine]		
7.40	NC(N)=NC(=O)c1ccc(Oc2ccc3ncccc3c2)c(C(F)(F)F)c1 [Example 17, 4-(6-Quinolinoxy)-3-trifluoromethylbenzoylguanidine]		
	NC(N)=NC(=O)c1nc(Cl)c(N)nc1N [amiloride, Amiloride]	suppressed completely	accompanied by a hypotensive and saluretic activity
	CCN(c1nc(N)c(C(=O)N=C(N)N)nc1Cl)C(C)C [ethylisopropylamiloride, Ethylisopropylamiloride]	even more potent than amiloride itself	
